Data as given in US11259516B2, “Method and apparatus for capsular delivery to plants” (priority 2017, dated 2022).

Experiments:
[1] = test system: Cryptostegia grandiflora (Rubber vine); design: key: X indicates that the given herbicide is suitable for controlling the given weed; conditions: cited from earlier work
[2] = test system: Vachellia nilotica (Prickly acacia); design: key: X indicates that the given herbicide is suitable for controlling the given weed; conditions: cited from earlier work
Melalauca spp = test system: Melalauca spp; design: key: X indicates that the given herbicide is suitable for controlling the given weed; conditions: cited from earlier work
[3] = test system: Calotropis procera (Rubber bush); design: key: X indicates that the given herbicide is suitable for controlling the given weed; conditions: cited from earlier work
[4] = test system: Eremophila mitchellii (False sandalwood); design: key: X indicates that the given herbicide is suitable for controlling the given weed; conditions: cited from earlier work
[5] = test system: Lycium ferocissium (African boxthom); design: key: X indicates that the given herbicide is suitable for controlling the given weed; conditions: cited from earlier work
[6] = test system: Planchonia careya (Cocky apple); design: key: X indicates that the given herbicide is suitable for controlling the given weed; conditions: cited from earlier work
[7] = test system: Parkinsonia aculeata (Parkinsonia); design: key: X indicates that the given herbicide is suitable for controlling the given weed; conditions: cited from earlier work
[8] = test system: Vachellia famesiana (Mimosa bush); design: key: X indicates that the given herbicide is suitable for controlling the given weed; conditions: cited from earlier work
Acacia spp (Wattles) = test system: Acacia spp (Wattles); design: key: X indicates that the given herbicide is suitable for controlling the given weed; conditions: cited from earlier work
[9] = test system: Atalaya hemiglauca (Whitewood); design: key: X indicates that the given herbicide is suitable for controlling the given weed; conditions: cited from earlier work
Lantana camara (Lantana) = test system: Lantana camara (Lantana); design: key: X indicates that the given herbicide is suitable for controlling the given weed; conditions: cited from earlier work
Mimosa pigra (Mimosa) = test system: Mimosa pigra (Mimosa); design: key: X indicates that the given herbicide is suitable for controlling the given weed; conditions: cited from earlier work
[10] = test system: Eucalyptus spp (Box, Eucalypt); design: key: X indicates that the given herbicide is suitable for controlling the given weed; conditions: cited from earlier work
[11] = test system: Ailanthus altissima (Tree-of-heaven); design: key: X indicates that the given herbicide is suitable for controlling the given weed; conditions: cited from earlier work
[12] = test system: western white gum (Eucalyptus argophloia); test: Example 2: glyphosate and hexazinone capsules, thinning trial in western white gum plantation
Procedure: The trial for this example was established at the HQP plantation near Jandowae on 6 Feb. 2018. The trees were planted in rows 4 m apart at 1.5 m spacing. Trees were 6-10 m tall. Trees to be maintained were marked and the other trees were treated.
Four treatments were used, with capsules as follows:
The capsules used were HPMC Size 0 Natural TR.V700 colour cap and body Vcaps (Suzhou Capsugel® Ltd, China). Capsules were hand packed using a Capsugel Profiller apparatus (https://www.capsugel.com/biopharmaceutical-products/profiller). An embodiment of apparatus 10 adapted to include handle 2201 (FIG. 17) was used to drill a hole into the stem, insert the herbicide capsule and seal with a wooden plug.
Herbicide capsules were applied to approximately 10 trees for each of the treatments. The number of capsules applied to each tree was independent of tree circumference which was measured at chest height. The tree circumferences range was from 20 to 34 centimetres. At 4 weeks, a small sample of trees were cut down with a chainsaw and cross-sections of stems containing the sites of insertion of the herbicide capsules removed. These stem pieces were returned to the laboratory and split open longitudinally through the insertion point. Tree health was assessed at 11 weeks (24 Apr. 2018) on a 0-4 scale with 0 being dead and 4 being healthy. Observations were made for evidence of flashback in untreated trees.

[13] = test system: Rubus anglocandicans (Blackberry); design: key: X indicates that the given herbicide is suitable for controlling the given weed; conditions: cited from earlier work
[14] = test system: Olea europea sbsp africana (African olive); design: key: X indicates that the given herbicide is suitable for controlling the given weed; conditions: cited from earlier work
[15] = test system: Tamarix aphylla (Athel pine); design: key: X indicates that the given herbicide is suitable for controlling the given weed; conditions: cited from earlier work
Prosopis spp (Mesquite) = test system: Prosopis spp (Mesquite); design: key: X indicates that the given herbicide is suitable for controlling the given weed; conditions: cited from earlier work
Phoenix spp (Palms) = test system: Phoenix spp (Palms); design: key: X indicates that the given herbicide is suitable for controlling the given weed; conditions: cited from earlier work
Acer negudo (Box elder) = test system: Acer negudo (Box elder); design: key: X indicates that the given herbicide is suitable for controlling the given weed; conditions: cited from earlier work
[16] = test system: Cinnamonum camphora (Camphor laurel); design: key: X indicates that the given herbicide is suitable for controlling the given weed; conditions: cited from earlier work
[17] = test system: Azadirachta indica (Neem); design: key: X indicates that the given herbicide is suitable for controlling the given weed; conditions: cited from earlier work
[18] = test system: Olea europea sbsp europa (European olive); design: key: X indicates that the given herbicide is suitable for controlling the given weed; conditions: cited from earlier work
[19] = test system: Ziziphus mauritania (Chinee apple); design: key: X indicates that the given herbicide is suitable for controlling the given weed; conditions: cited from earlier work
[20] = test system: Ligustrum sinense (Chinese privet); design: key: X indicates that the given herbicide is suitable for controlling the given weed; conditions: cited from earlier work
[21] = test system: Schinus terebinthifolius (Broad-leafed pepper tree); design: key: X indicates that the given herbicide is suitable for controlling the given weed; conditions: cited from earlier work
[22] = test system: Ricinus communis (Castor oil plant); design: key: X indicates that the given herbicide is suitable for controlling the given weed; conditions: in vivo; cited from earlier work
[23] = test system: Cestrum parqui (Green cestrum); design: key: X indicates that the given herbicide is suitable for controlling the given weed; conditions: cited from earlier work
[24] = test system: Bursaria spinosa (Australian blackthorn); design: key: X indicates that the given herbicide is suitable for controlling the given weed; conditions: cited from earlier work
Angophora spp (Apple) = test system: Angophora spp (Apple); design: key: X indicates that the given herbicide is suitable for controlling the given weed; conditions: cited from earlier work
[25] = test system: Ligustrum lucidum (Broad leaf privet); design: key: X indicates that the given herbicide is suitable for controlling the given weed; conditions: cited from earlier work
[26] = test system: Banksia spp (Bottlebrush); design: key: X indicates that the given herbicide is suitable for controlling the given weed; conditions: cited from earlier work
[27] = test system: Senegalia catechu (Cutch tree); design: key: X indicates that the given herbicide is suitable for controlling the given weed; conditions: cited from earlier work
[28] = test system: Crataegus sinaica (Azarola); design: key: X indicates that the given herbicide is suitable for controlling the given weed; conditions: cited from earlier work

CNC(=O)N(C)c1nnc(C(C)(C)C)s1 [Tebuthiuron]
X: suitability of herbicide for control of weed [1] | suitability of herbicide for control of weed [2] | suitability of herbicide for control of weed (Melalauca spp) | suitability of herbicide for control of weed [3] | suitability of herbicide for control of weed [4] | suitability of herbicide for control of weed [5] | suitability of herbicide for control of weed [6] | suitability of herbicide for control of weed [7] | suitability of herbicide for control of weed [8] | suitability of herbicide for control of weed (Acacia spp (Wattles)) | suitability of herbicide for control of weed [9] | suitability of herbicide for control of weed (Lantana camara (Lantana)) | suitability of herbicide for control of weed (Mimosa pigra (Mimosa))

COc1c(Cl)ccc(Cl)c1C(=O)O [Dicamba]
X: suitability of herbicide for control of weed [1] | suitability of herbicide for control of weed (Mimosa pigra (Mimosa))

CN(C)c1nc(=O)n(C2CCCCC2)c(=O)n1C [Hexazinone]
obvious deterioration in plant health: plant health (yellowing of the foliage) ([12]; Eucalyptus argophloia, 11 weeks, 1 or 2 capsules per tree)
no flashback was observed: flashback in the trees marked for retention ([12]; in vivo)
only a small percentage of trees killed: trees died / killed (health rating 0-4 scale, 0 dead) ([12]; Eucalyptus argophloia, 11 weeks post treatment, 1 or 2 capsules per tree)
X: suitability of herbicide for control of weed [10] | suitability of herbicide for control of weed [1] | suitability of herbicide for control of weed [2] | suitability of herbicide for control of weed [11] | suitability of herbicide for control of weed [5] | suitability of herbicide for control of weed [7] | suitability of herbicide for control of weed (Acacia spp (Wattles))

O=C(O)COc1nc(Cl)c(Cl)cc1Cl [Triclopyr]
X: suitability of herbicide for control of weed [10] | suitability of herbicide for control of weed [1] | suitability of herbicide for control of weed [13] | suitability of herbicide for control of weed [2] | suitability of herbicide for control of weed [14] | suitability of herbicide for control of weed [15] | suitability of herbicide for control of weed (Prosopis spp (Mesquite)) | suitability of herbicide for control of weed [11] | suitability of herbicide for control of weed (Phoenix spp (Palms)) | suitability of herbicide for control of weed (Acer negudo (Box elder)) | suitability of herbicide for control of weed [16] | suitability of herbicide for control of weed [5] | suitability of herbicide for control of weed [17] | suitability of herbicide for control of weed [18] | suitability of herbicide for control of weed [19] | suitability of herbicide for control of weed [20] | suitability of herbicide for control of weed [21] | suitability of herbicide for control of weed [22] | suitability of herbicide for control of weed [23] | suitability of herbicide for control of weed [24] | suitability of herbicide for control of weed (Angophora spp (Apple)) | suitability of herbicide for control of weed (Acacia spp (Wattles)) | suitability of herbicide for control of weed [25] | suitability of herbicide for control of weed [26] | suitability of herbicide for control of weed [27] | suitability of herbicide for control of weed (Lantana camara (Lantana)) | suitability of herbicide for control of weed [28]
